These results are taken from patent US20250057910A1, “Application of Polypeptide in Preparation of Product for Preventing or Treating Skin Injury Diseases” (Sichuan Gooddoctor Panxi Pharmaceutical Co., Ltd., priority 2021, published 2025).

Ends that are not written are not given here.

This assay relates to SD rats. Kind of assay: Healing of full-layer skin defect wound in SD rats. Type of assay: in vivo, rat. To be noted: SD rats, topical once a day, polypeptide 50 μg/cm^2, comparative polypeptide 1 41.90 μg/cm^2, comparative polypeptide 2 52.66 μg/cm^2, Mean ± SD, n = 8. As to the method:
Experimental animals: SD male rats, SPF grade, 6 weeks old, weighing 180-220 g, from Beijing Vital River Laboratory Animal Technology Co., Ltd., with the experimental animal quality certification number of NO.110011220109610345, and the experimental animal use license number of SCXK (Beijing) 2021-0011.
Experimental method: SD rats were randomly divided into […] based on the body weight with 8 animals in each group, namely, vehicle group, the polypeptide group (50 μg/cm^2), comparative polypeptide 1 group (41.90 μg/cm^2) and comparative polypeptide 2 group (52.66 μg/cm^2). The amino acid sequence of comparative polypeptide 1 is Glu-Pro-Val-Pro-Leu; and the amino acid sequence of comparative polypeptide 2 is Pro-Ala-Ala-Glu-Pro-Val-Pro-Leu-Val-Lys-Gln-Glu.
After each experimental rat was anesthetized by intraperitoneal injection of 2% pentobarbital sodium (0.2 mL/100 g), a 2 cm^2 full-layer skin defect wound was prepared at each of both sides of the back spine. After hemostasis of the wound, the corresponding drug was administered at the wound locally by group. Each group was administered once a day, with a dosed volume of 72 μL/wound each time, for 14 consecutive days. After the administration, the wound was covered with a sterile vaseline gauze (5 cm*5 cm), and bandaged with multi-layer sterile gauzes. After the wound surgery, the wound was photographed, and the wound area was recorded as the baseline value (the wound was recorded as Day0). During the administration period, the areas of the wounds were photographed and measured 3 times a week, and the healing was observed.

On to “Glu-Pro-Val-Pro-Leu (EPVPL; printed: Glu-Pro-Val-Pro-Leu) [Comparative polypeptide 1]”, for which the Wound healing rate reads like this: (Day 0 (baseline)) 0.00 ± 0.00%; (Day 3) 21.13 ± 17.43%; (Day 5) 40.18 ± 17.43%; (Day 7) 68.84 ± 7.64%; (Day 10) 88.90 ± 8.40%.
For “PAAEPVPLVKQE [Comparative polypeptide 2]” the same measures were 0.00 ± 0.00%, 17.21 ± 22.78%, 50.08 ± 16.55%, 65.26 ± 14.46% and 90.34 ± 3.04%.
